In general, IC50 refers to the concentration needed to halve the response being measured. A low value points to higher potency. One may read the Papp as a coefficient for how fast a substance crosses the barrier. A low value points to slow passage. A word on the Ki: it is a dissociation constant, usually derived from enzyme kinetics or from competition with a known ligand. A lower Ki goes with a stronger hold on the target.

The target in series [1] is T1, Vascular endothelial growth factor receptor 1 (Homo sapiens, UniProt P17948). The series can be described thus: Inhibition of VEGFR1 by HTRF assay.
Target sequence in this assay (P17948 whole entry, looked up): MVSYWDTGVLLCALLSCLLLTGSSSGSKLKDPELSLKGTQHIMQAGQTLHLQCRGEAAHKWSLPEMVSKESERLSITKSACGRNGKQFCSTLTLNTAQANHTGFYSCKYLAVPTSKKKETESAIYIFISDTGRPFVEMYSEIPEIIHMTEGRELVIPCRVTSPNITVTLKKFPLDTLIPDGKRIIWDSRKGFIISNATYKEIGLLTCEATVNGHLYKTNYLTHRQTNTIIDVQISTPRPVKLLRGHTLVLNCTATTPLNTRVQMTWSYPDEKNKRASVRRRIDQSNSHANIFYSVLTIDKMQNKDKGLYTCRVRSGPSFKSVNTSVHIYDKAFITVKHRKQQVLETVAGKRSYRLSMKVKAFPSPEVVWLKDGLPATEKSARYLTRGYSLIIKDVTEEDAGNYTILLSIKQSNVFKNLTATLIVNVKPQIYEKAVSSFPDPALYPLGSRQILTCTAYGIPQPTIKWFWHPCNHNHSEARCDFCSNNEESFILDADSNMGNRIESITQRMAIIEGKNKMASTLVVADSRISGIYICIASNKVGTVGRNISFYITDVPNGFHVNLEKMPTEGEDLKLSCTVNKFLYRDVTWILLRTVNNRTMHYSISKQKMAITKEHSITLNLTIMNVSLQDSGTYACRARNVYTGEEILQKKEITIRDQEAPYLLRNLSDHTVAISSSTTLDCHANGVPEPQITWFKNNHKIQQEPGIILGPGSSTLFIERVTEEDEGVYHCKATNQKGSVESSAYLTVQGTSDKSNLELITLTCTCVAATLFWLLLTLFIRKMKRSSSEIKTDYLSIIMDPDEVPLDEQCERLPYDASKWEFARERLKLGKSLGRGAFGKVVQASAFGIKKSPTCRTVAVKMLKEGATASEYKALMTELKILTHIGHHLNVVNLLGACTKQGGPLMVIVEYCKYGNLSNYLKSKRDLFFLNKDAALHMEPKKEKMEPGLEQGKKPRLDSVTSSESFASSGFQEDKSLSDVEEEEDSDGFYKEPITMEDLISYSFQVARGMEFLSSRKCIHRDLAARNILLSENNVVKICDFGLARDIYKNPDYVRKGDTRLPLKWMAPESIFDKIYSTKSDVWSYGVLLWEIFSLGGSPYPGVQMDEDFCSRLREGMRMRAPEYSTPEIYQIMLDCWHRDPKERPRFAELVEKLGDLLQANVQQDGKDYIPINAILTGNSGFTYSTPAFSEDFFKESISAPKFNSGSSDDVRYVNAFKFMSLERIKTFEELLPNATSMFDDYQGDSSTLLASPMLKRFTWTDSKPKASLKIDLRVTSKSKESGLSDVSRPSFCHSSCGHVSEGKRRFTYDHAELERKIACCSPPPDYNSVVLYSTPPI
Series [2] is described as follows: Intrinsic permeability across Caco-2 cell monolayers. The note with it: human. For orientation: Caco-2 monolayers are a common model of the intestinal barrier.
In series [3] the target is T2, Vascular endothelial growth factor receptor 2 (Homo sapiens, UniProt P35968). The series can be described thus: Inhibition of VEGFR2 by HTRF assay. On the technique in general: In TR-FRET formats the signal depends on donor and acceptor labels being close together.
In series [4] the target is T2, Vascular endothelial growth factor receptor 2. Kind of series: Inhibition of VEGFR2 by cell-based assay. Type of series: functional.
Series [5] has as its target T1, Vascular endothelial growth factor receptor 1. Kind of series: Inhibition of VEGFR1 by HTRF assay.
Target sequence in this assay (P17948 whole entry): as the sequence (P17948 whole entry, looked up) above
Series [6] addresses T2, Vascular endothelial growth factor receptor 2. The series can be described thus: Inhibition of VEGFR2 by HTRF assay.
Series [7] shares this target. Kind of series: Inhibition of VEGFR2 by [32P]ATP-competitive radioassay.

SMILES strings stand for the structures. Bounds are passed on as bounds.

T2 sequence (P35968 whole entry): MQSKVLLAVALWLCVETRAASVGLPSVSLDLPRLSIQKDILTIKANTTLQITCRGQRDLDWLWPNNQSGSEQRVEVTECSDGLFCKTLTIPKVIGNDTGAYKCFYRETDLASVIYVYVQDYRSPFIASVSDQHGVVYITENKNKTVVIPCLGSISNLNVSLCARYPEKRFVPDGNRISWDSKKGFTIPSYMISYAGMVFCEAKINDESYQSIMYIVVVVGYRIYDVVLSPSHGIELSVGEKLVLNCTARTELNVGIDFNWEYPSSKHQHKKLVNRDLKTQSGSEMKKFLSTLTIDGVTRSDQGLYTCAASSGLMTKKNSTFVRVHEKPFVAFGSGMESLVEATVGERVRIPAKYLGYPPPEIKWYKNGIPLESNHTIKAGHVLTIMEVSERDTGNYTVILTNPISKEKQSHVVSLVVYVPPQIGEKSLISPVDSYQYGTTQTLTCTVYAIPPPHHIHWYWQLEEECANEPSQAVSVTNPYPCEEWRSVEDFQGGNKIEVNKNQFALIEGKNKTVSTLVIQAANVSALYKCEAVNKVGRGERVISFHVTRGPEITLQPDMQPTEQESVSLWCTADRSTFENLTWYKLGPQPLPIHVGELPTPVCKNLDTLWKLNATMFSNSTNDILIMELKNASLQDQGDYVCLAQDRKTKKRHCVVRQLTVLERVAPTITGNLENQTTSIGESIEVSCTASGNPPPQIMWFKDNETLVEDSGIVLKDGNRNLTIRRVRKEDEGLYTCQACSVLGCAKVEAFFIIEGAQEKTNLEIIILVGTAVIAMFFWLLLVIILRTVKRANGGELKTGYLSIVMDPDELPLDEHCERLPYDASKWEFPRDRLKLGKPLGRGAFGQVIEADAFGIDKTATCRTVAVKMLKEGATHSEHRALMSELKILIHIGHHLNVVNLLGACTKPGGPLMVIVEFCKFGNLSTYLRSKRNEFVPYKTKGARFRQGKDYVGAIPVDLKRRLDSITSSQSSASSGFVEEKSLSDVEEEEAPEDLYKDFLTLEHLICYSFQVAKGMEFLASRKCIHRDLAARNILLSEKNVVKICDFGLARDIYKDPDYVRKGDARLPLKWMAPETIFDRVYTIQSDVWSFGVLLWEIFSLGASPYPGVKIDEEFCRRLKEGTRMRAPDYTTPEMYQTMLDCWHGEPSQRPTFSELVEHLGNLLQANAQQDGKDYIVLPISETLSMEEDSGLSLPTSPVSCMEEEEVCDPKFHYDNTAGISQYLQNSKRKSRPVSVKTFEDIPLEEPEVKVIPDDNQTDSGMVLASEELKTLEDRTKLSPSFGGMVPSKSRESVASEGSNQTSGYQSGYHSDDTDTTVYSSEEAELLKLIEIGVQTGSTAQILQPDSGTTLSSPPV

For the compound `Cn1cnc(NCc2ccncc2)c1C(=O)Nc1ccc(Cl)c(Cl)c1`, the IC50 came to 550 nM in series [1], 370 nM in series [3] and 96 nM in series [4]. In series [2], the Papp is 7.03 ×10⁻⁶ cm/s.

As to `Cn1ncc(NCc2ccc3c(c2)OCO3)c1C(=O)Nc1cccc(C(F)(F)F)c1`, the IC50 is 5290 nM in series [5], over 10000 nM in series [6] and over 10000 nM in series [4].

For `Cn1ncc(NCc2ccncc2)c1C(=O)Nc1ccc(Cl)c(Cl)c1`, the IC50 in series [1] came out at 360 nM; in series [3], 250 nM; in series [4], 82 nM. In series [2], the Papp was 6.73 ×10⁻⁶ cm/s.

With `Cn1cnc(NCc2ccc3c(c2)OCO3)c1C(=O)Nc1ccc(C(F)(F)F)cc1`, the IC50 in series [5] was 1680 nM; in series [6], 2550 nM; in series [4] it was over 10000 nM.

With `Cn1ncc(NCc2ccncc2)c1C(=O)Nc1ccc(C(C)(C)C)cc1`, the IC50 in series [1] worked out at 180 nM; in series [3] it was 130 nM; in series [4] it was 45 nM. In series [2], this compound showed a Papp of 6.25 ×10⁻⁶ cm/s.

`Cn1ncc([N+](=O)[O-])c1C(=O)O` had a Papp in series [2] of 5.4 ×10⁻⁶ cm/s.

On to `CC(C)c1ccc(NC(=O)c2c(NCc3ccncc3)ncn2C)cc1`, for which the 50% inhibitory concentration (IC50) in series [1] was found to be 270 nM; in series [3], 180 nM; in series [4], 75 nM. This compound showed a Papp in series [2] of 6.2 ×10⁻⁶ cm/s.

Consider `Cc1cc(NC(=O)c2c(NCc3ccncc3)ncn2C)ccc1C(F)(F)F`, for which the IC50 stood at 510 nM in series [1], 210 nM in series [3] and 64 nM in series [4]. For the same compound, the apparent permeability (Papp) in series [2] is 7.1 ×10⁻⁶ cm/s. This compound also came in with a Ki in series [7] of 160 nM.

`Cn1cnc(NCc2ccc3c(c2)OCO3)c1C(=O)Nc1cccc(C(F)(F)F)c1`: the IC50 in series [5] is 2270 nM; in series [6], 3120 nM; in series [4], over 10000 nM.

The compound `O=C(Nc1cnc2ccccc2c1)c1ccccc1NCc1ccncc1` gave a Papp in series [2] of 2.88 ×10⁻⁶ cm/s.

On to `COc1ccc(NC(=O)c2c(NCc3ccncc3)ncn2C)cc1OC`, for which the IC50 in series [1] came out at 350 nM; in series [3] it was 210 nM; in series [4], 57 nM. In series [2], this compound gave a Papp of 8.22 ×10⁻⁶ cm/s.

On to `Cc1ccc(NC(=O)c2c(NCc3ccncc3)ncn2C)cc1C(F)(F)F`, for which the IC50 in series [1] stood at 610 nM; in series [3], 340 nM. Also, the Papp in series [2] is 5.93 ×10⁻⁶ cm/s.

Regarding `Cn1ncc(NCc2ccncc2)c1C(=O)Nc1ccc(OC(F)(F)F)cc1`, the IC50 in series [1] was determined as 1870 nM; in series [3], 730 nM; in series [4] it was 64 nM. The compound further gave a Papp in series [2] of 5.42 ×10⁻⁶ cm/s. Further, the Ki in series [7] was 170 nM.

For `Cn1cnc(NCc2ccncc2)c1C(=O)Nc1ccc(Cl)cc1`, the results for the IC50 in series [1], in series [3] and in series [4] were over 10000 nM, 250 nM and 1650 nM, respectively. In series [2], this compound had a Papp of 0.95 ×10⁻⁶ cm/s.

`Cn1cnc(NCc2ccncc2)c1C(=O)Nc1ccc(C(C)(C)C)cc1`: the results for the IC50 in series [1], in series [3] and in series [4] were 110 nM, 87 nM and 64 nM, respectively. The apparent permeability (Papp) in series [2] is 7.55 ×10⁻⁶ cm/s. For the same compound, the Ki in series [7] is 200 nM.

In the case of `Cn1cnc(NCc2ccncc2)c1C(=O)Nc1ccc(C(F)(F)F)c(Cl)c1`, the figures for the IC50 in series [1], in series [3] and in series [4] were 350 nM, 290 nM and 88 nM, respectively. In series [2], the Papp was 3.6 ×10⁻⁶ cm/s.

On to `Cc1cc(NC(=O)c2c(NCc3ccncc3)cnn2C)ccc1C(F)(F)F`, for which the IC50 in series [1] was 560 nM; in series [3], 330 nM; in series [4] it was 69 nM. The Papp in series [2] was 5.52 ×10⁻⁶ cm/s.

For `Cn1cnc(NCc2ccncc2)c1C(=O)Nc1ccc(Cl)c(C(F)(F)F)c1`, the IC50 worked out at 1260 nM in series [1], 950 nM in series [3] and 170 nM in series [4]. The compound also had a Papp in series [2] of 6.15 ×10⁻⁶ cm/s.

As to `Cc1noc(NCc2ccncc2)c1C(=O)Nc1ccc(C(C)(C)C)cc1`, the IC50 in series [1] was determined as 420 nM; in series [3], 280 nM; in series [4], 210 nM.

As for `Cn1cnc(NCc2ccncc2)c1C(=O)Nc1ccc(Oc2ccccc2)cc1`, the figures for the IC50 in series [1], in series [3] and in series [4] were over 10000 nM, 4290 nM and over 10000 nM, respectively.

As for `Cn1cnc(NCc2ccncc2)c1C(=O)Nc1cnc2ccccc2c1`, the IC50 amounted to 350 nM in series [1], 230 nM in series [3] and 920 nM in series [4].

Turning to `Cc1noc(NCc2ccncc2)c1C(=O)Nc1ccc(OC(F)(F)F)cc1`, the IC50 in series [1] is 3550 nM; in series [3] it was 2120 nM; in series [4], 910 nM.

With `Cc1noc(NCc2ccncc2)c1C(=O)Nc1cnc2ccccc2c1`, the IC50 is 1220 nM in series [1], 940 nM in series [3] and 3540 nM in series [4].

With `Cn1ncc(NCc2cccnc2)c1C(=O)Nc1cccc(C(F)(F)F)c1`, the IC50 in series [1], in series [3] and in series [4] was over 10000 nM in each case.

For the compound `Cc1noc(NCc2ccncc2)c1C(=O)Nc1ccc(C(C)C)cc1`, the IC50 was 760 nM in series [1], 440 nM in series [3] and 350 nM in series [4].

For `Cc1noc(NCc2ccncc2)c1C(=O)Nc1cccc(Cl)c1`, the IC50 in series [1], in series [3] and in series [4] was over 10000 nM in each case.

Take `CC(C)c1ccc(NC(=O)c2c(NCc3ccncc3)cnn2C)cc1`: the IC50 was 440 nM in series [1], 290 nM in series [3] and 88 nM in series [4].

On to `Cn1ncc(NCc2cccnc2)c1C(=O)Nc1ccc(C(F)(F)F)cc1`, for which the IC50 in series [1], in series [3] and in series [4] was over 10000 nM in each case.

These data come from ChEMBL document CHEMBL1139078, “ortho-Substituted azoles as selective and dual inhibitors of VEGF receptors 1 and 2” (Bioorg Med Chem Lett, 2007).
